Measured values as given in patent US9889225B2 (KAOHSIUNG MEDICAL UNIVERSITY, priority 2010, dated 2018).

What was measured:
rat femur bone defect [1] = experiment: Rat femur bone defect model, 3-point bending test; conditions: post-surgery 6 weeks
Method: (§1) For anesthesia, an intraperitoneal injection with a mixture of ketamin hydrochloride (100 mg/ml per 80 mg/kg body weight) and xylazin 2% (12 mg/kg body weight) were used. The left thigh was shaved and a 3 cm lateral longitudinal skin incision was made. The lateral approach was performed posterior to vastus lateralis without damaging the muscle. A bone defect, 0.1 cm×0.4 cm in size, on left femur was created at middle portion of shaft by using a 0.5 mm cone-shape bur. After that, the implant was inserted into the cavity and covered with […] ™ (Johnson & Johnson Medical Limited, Neuchatel, Switzerland) to fix the implant in place. Radiographs were taken to verify the correct position of the bone defect using the great trochanter as control point. At the end of operation, skin wounds were sutured. Six weeks after operation, animals were sacrificed for biomechanical and histological analysis.
The present invention employed 3-point bending test to analyze the mechanical property at the end of experiment. Counterlateral femoral bone served as a non-defect femoral bone.
Mechanical property of bone: 3-point bending test: For testing the mechanical property of the repaired femoral defect, the Instron 4466 (model 4465; Instron, Canton, Mass.) was employed for mechanical tests. The rat femur was removed from body and all the connective tissues were stripped off. For 3-point bending, the femur bone was positioned onto two supports, and a single-pronged loading device was applied to the opposite surface at a point precisely in the middle between the two supports. The distance between two supports was 4 cm. Loading force was 1N with speed of 1 mm/min. The experimental procedure involved the measurement of the deflection of the bone at the point of load application and the concurrent measurement of the load, yielding a force-deflection graph. Parameters obtained from this graph include whole-bone stiffness (defined as the slope of the early, linear portion of the load-deflection curve), yield point, maximal load and fracture load. The Young's modulus of the material from the geometry of the loading device and the stiffness of the bone were measured. The data calculations were all based on beam theory and the Hooke's law.

rat femur bone defect [2] = experiment: Rat femur bone defect model, micro-CT trabecular bone volume; conditions: 6 weeks after surgery; for trabecular bone volume in the femoral defect site: normalized with total defect length
Method: For anesthesia, an intraperitoneal injection with a mixture of ketamin hydrochloride (100 mg/ml per 80 mg/kg body weight) and xylazin 2% (12 mg/kg body weight) were used. The left thigh was shaved and a 3 cm lateral longitudinal skin incision was made. The lateral approach was performed posterior to vastus lateralis without damaging the muscle. A bone defect, 0.1 cm×0.4 cm in size, on left femur was created at middle portion of shaft by using a 0.5 mm cone-shape bur. After that, the implant was inserted into the cavity and covered with […] ™ (Johnson & Johnson Medical Limited, Neuchatel, Switzerland) to fix the implant in place. Radiographs were taken to verify the correct position of the bone defect using the great trochanter as control point. At the end of operation, skin wounds were sutured.
Animals were anesthesia during micro-CT images scanning. Small animal micro-CT (Skyscan 1076, Bruker, Belgium) was employed for analyzing bone repair process in living animals and calculated by image software (CTAn) at the desired time point. The scan conditions were set at an aluminum filter of 0.5mm, 35 μm scanning resolution, x-ray voltage of 50 KV, x-ray current of 200 mA and an exposure time of 600 m-seconds. The area used for analysis began at the defect site close to femoral head and through all the defect area. Total volume indicated the inner area of cortical bone. Trabecular bone volume indicated the total trabecular bone within the total volume. Trabecular bone volume was normalized with total defect length in each rat.

rat femur bone defect [3] = conditions: 6 weeks after implantation
Method: as §1
Femoral bone specimens were harvested for histological study 6 weeks after implantation. […] The 5-mm thick bone sections were removed and stained with hematoxylin and eosin (H&E; Santa Cruz, Santa Cruz, Calif., USA). A microscope with 10×, 100×, 400× magnification, equipped with a digital CCD camera (Eclipse 50i; Nikon Inc., Mich., USA), were used for images of the sections.

[4] = test system: bone morphogenetic protein-2 (BMP-2); conditions: 6 weeks after implantation, versus PLGA group
Method: as §1
The 5 μm thick sections of femoral bone were incubated in 0.1% EDTA for 10 min at 100 degree for antigen retrieval. Immunohistochemistry (IHC) was performed using the Immuno Cruz Staining System (Santa Cruz). After incubating with 5% BSA/PBS (Sigma, Saint Louis, Mo., USA) blocking solution for 2 h at room temperature, sections were labeled with human-specific anti-BMP2 (dilution 1:50; Abcam) overnight at 4 degree in a humid chamber. […]

poly(lactic-co-glycolic acid) cross-linked alendronate [PLGA-ALN]
Young's modulus (rat femur bone defect [1]; 5 mg implant): 0.43±0.03 GPa | maximal strength (rat femur bone defect [1]; 5 mg implant): 172.5±18.2 N | total energy absorption (rat femur bone defect [1]; 5 mg implant): 106.43±15.36 mm*N | Young's modulus (rat femur bone defect [1]; 10 mg implant): 0.51±0.03 GPa | maximal strength (rat femur bone defect [1]; 10 mg implant): 191.7±11.7 N | total energy absorption (rat femur bone defect [1]; 10 mg implant): 110.71±9.95 mm*N | trabecular bone volume relative to the control or PLGA group (rat femur bone defect [2]; 5 mg implant): 2 times | trabecular bone volume in the femoral defect site (rat femur bone defect [2]; 5 mg implant): 1.413±0.21 | trabecular bone volume relative to the control or PLGA group (rat femur bone defect [2]; 10 mg implant): 2 times | trabecular bone volume in the femoral defect site (rat femur bone defect [2]; 10 mg implant): 1.45±0.35 | cortical bone thickness and trabecular bone (H&E) versus PLGA group (rat femur bone defect [3]): Thicker cortical bone and more trabecular bone | immunolocalized BMP-2 in the repaired cortical bone and trabecular bone [4]: predominant
